Assay results from the supplement of paper PMC10307832.

Experiments:
Test in all cases: relative viability (nuclei count vs DMSO), 5 days (fraction); higher = more cells survive
Entinostat + Vorinostat = compound: Nc1ccccc1NC(=O)c1ccc(CNC(=O)OCc2cccnc2)cc1 [Entinostat] + O=C(CCCCCCC(=O)Nc1ccccc1)NO [Vorinostat] (partner 1 µM)
Method in brief: (§1)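 Relative viability is defined as nuclei in treated wells over nuclei in vehicle wells. Duplicate plates were run and medians reported. Lung cancer cell lines in 1536-well plates were dosed by pin tool one day after seeding, with one drug or with a fixed anchor-drug dose plus five library-drug doses (not always all listed) in √10 steps, and nuclei were counted after 5 days.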

SGI-1776 + Navitoclax = compound: CN1CCC(CNc2ccc3ncc(-c4cccc(OC(F)(F)F)c4)n3n2)CC1 [SGI-1776] + CC1(C)CCC(c2ccc(Cl)cc2)=C(CN2CCN(c3ccc(C(=O)NS(=O)(=O)c4ccc(N[C@H](CCN5CCOCC5)CSc5ccccc5)c(S(=O)(=O)C(F)(F)F)c4)cc3)CC2)C1 [Navitoclax] (partner 0.5 µM)
Method in brief: as §1

Entinostat + AZD7762 = compound: Nc1ccccc1NC(=O)c1ccc(CNC(=O)OCc2cccnc2)cc1 [Entinostat] + NC(=O)Nc1cc(-c2cccc(F)c2)sc1C(=O)N[C@H]1CCCNC1 [AZD7762] (partner 0.2 µM)
Method in brief: as §1

Entinostat + Decitabine = compound: Nc1ccccc1NC(=O)c1ccc(CNC(=O)OCc2cccnc2)cc1 [Entinostat] + Nc1ncn([C@H]2C[C@H](O)[C@@H](CO)O2)c(=O)n1 [Decitabine] (partner 2 µM)
Method in brief: as §1

Row | Cell Line | relative viability (Entinostat + Vorinostat; first compound 0.02 µM) | relative viability (Entinostat + Vorinostat; first compound 0.06325 µM) | relative viability (Entinostat + Vorinostat; first compound 0.2 µM) | relative viability (Entinostat + Vorinostat; first compound 0.6325 µM) | relative viability (Entinostat + Vorinostat; first compound 2 µM) | relative viability (SGI-1776 + Navitoclax; first compound 0.08 µM) | relative viability (SGI-1776 + Navitoclax; first compound 0.8 µM) | relative viability (SGI-1776 + Navitoclax; first compound 2.53 µM) | relative viability (SGI-1776 + Navitoclax; first compound 8 µM) | relative viability (Entinostat + AZD7762; first compound 0.02 µM) | relative viability (Entinostat + AZD7762; first compound 0.06325 µM) | relative viability (Entinostat + AZD7762; first compound 0.2 µM) | relative viability (Entinostat + AZD7762; first compound 0.6325 µM) | relative viability (Entinostat + AZD7762; first compound 2 µM) | relative viability (Entinostat + Decitabine; first compound 0.02 µM) | relative viability (Entinostat + Decitabine; first compound 0.06325 µM) | relative viability (Entinostat + Decitabine; first compound 0.2 µM) | relative viability (Entinostat + Decitabine; first compound 0.6325 µM) | relative viability (Entinostat + Decitabine; first compound 2 µM)
1 | NCI-H2170 | 0.803 | 0.72 | 0.683 | 0.476 | 0.265 | 0.561 | 0.678 | 0.581 | 0.56 | 0.876 | 0.878 | 0.825 | 0.602 | 0.193 | 0.465 | 0.468 | 0.376 | 0.281 | 0.236
2 | HCC-366 | 0.338 | 0.239 | 0.209 | 0.0651 | 0.0386 | 1.06 | 0.964 | 1.2 | 1.09 | 0.262 | 0.29 | 0.272 | 0.107 | 0.121 | 0.312 | 0.315 | 0.168 | 0.155 | 0.0591
3 | NCI-H2405 | 1.23 | 1.02 | 0.979 | 0.693 | 0.42 | 0.823 | 0.804 | 0.779 | 0.452 | 0.795 | 0.896 | 0.704 | 0.641 | 0.495 | 0.693 | 0.784 | 0.686 | 0.501 | 0.511
4 | COR-L 105 | 0.993 | 0.986 | 0.851 | 0.541 | 0.356 | 0.799 | 0.86 | 1 | 0.546 |  |  |  |  |  | 0.64 | 0.641 | 0.595 | 0.466 | 0.337
5 | 201T | 0.995 | 1.07 | 0.95 | 0.691 | 0.491 | 1.19 | 1.24 | 1.23 | 1.17 | 0.694 | 0.711 | 0.601 | 0.402 | 0.328 | 0.82 | 0.692 | 0.777 | 0.401 | 0.406
6 | NCI-H2228 | 0.675 | 0.683 | 0.761 | 0.406 | 0.32 | 0.843 | 0.817 | 0.658 | 0.51 |  |  |  |  |  |  |  |  |  | 
7 | LCLC-103H | 0.804 | 0.806 | 0.703 | 0.482 | 0.447 |  |  |  |  | 0.818 | 0.866 | 0.719 | 0.474 | 0.432 | 0.714 | 0.72 | 0.757 | 0.488 | 0.472
8 | NCI-H2087 | 1.07 | 0.407 | 0.697 | 0.451 | 0.157 | 0.963 | 1.04 | 1.04 | 0.861 | 1.22 | 0.975 | 1.04 | 1.03 | 0.355 | 0.283 | 0.302 | 0.186 | 0.133 | 0.106
9 | NCI-H358 | 0.67 | 0.618 | 0.947 | 0.211 | 0.117 |  |  |  |  | 0.55 | 0.69 | 0.6 | 0.408 | 0.192 | 0.188 | 0.201 | 0.173 | 0.153 | 0.137
10 | H3255 | 0.902 | 0.303 | 0.65 | 0.483 | 0.37 | 0.525 | 0.46 | 0.543 | 0.193 | 1 | 0.901 | 0.756 | 0.539 | 0.333 | 0.58 | 0.556 | 0.493 | 0.268 | 0.218
